Laboratory results published in US20120004199A1, “SCAFFOLDS” (priority 2009, published 2012).

Experiments:
[1] = test system: NF-κB/p65; assay: NF-κB/p65 activation immunolabelling in 2D fibroblast cultures stimulated with LPS or TNF-α; type: cell-based, human; details: for effect on LPS induced NF-κB activation / effect on TNF induced NF-κB activation: 10^−4 and 10^−3M; for effect on LPS induced NF-κB activation: LPS 100 ng/mL; for effect on TNF induced NF-κB activation: TNF-α 1000 U/mL
Experimental: LPS from E. coli serotype O111:B4 (Sigma-Aldrich) at 100 ng/mL or TNF-α (Sigma-Aldrich) at 1000 U/mL was used as a positive control for activation of NF-κB in fibroblasts. In preliminary experiments, Ibuprofen (10^−3 and 10^−4 M, sodium salt and isomer mixture; Sigma-Aldrich, UK) was used to downregulate NF-κB activation. Then the 10% Ibuprofen loaded PLGA scaffolds (75/25, 50/50 and a 1:1 blend of these two) were examined. Negative controls were produced by incubating cells in normal DMEM. All experiments were performed in triplicate.
Following the Ibuprofen treatments, monolayers were washed in PBS and the cells were fixed in 10% formalin (500 μL per well) for 30 minutes. Cell monolayers were washed a further three times in PBS, prior to cell permeabilisation with 0.1% Triton X100 for 20 minutes. Subsequently, cells were washed three times with PBS. Unreactive binding sites were blocked by adding a 5% dried milk powder solution to each well for 1 hour. A further three washes in PBS were performed prior to incubation with the first antibody solution. The first antibody (rabbit polyclonal antihuman IgG NF-κB p65 C-20, Santa Cruz Biotechnology Inc., CA) was added at a concentration of 1:100 in 1% PBS-dried milk powder. Cells were incubated in the antibody solution at 4° C. for 18 hours. The cells were washed three more times in PBS. Afterwards, cells were incubated with biotinylated goat anti-rabbit (1:1000) (Vector Laboratories, CA) in 1% PBS-milk powder. The cells were then washed a further three times in PBS. Streptavidin-FITC (Vector Laboratories, CA) conjugate was then added to the wells at a concentration of 1:100 in PBS. A further three washes in PBS were performed. After this time, the fluorescent staining were visualised using an AXON image express system (Axon Instruments/Molecular Devices, Union City, Calif.). Briefly, fluorescence micrographs of immunolabelled samples were taken using epifluorescent illumination at λex 495 nm λem 515 nm (for FITC visualisation); λex 358 nm λem 461 nm (for DAPI visualisation). DAPI fluorescence was used to identify nuclear position. The boundary between nucleus and cytoplasm was delimited by analysis software (ImageXpress Console 1.0) using DAPI micrographs in a sample of at least 100 cellular counts per visual field. Within the defined region, the intensity of FITC (NF-κB/p65) labelling was used to calculate activation for each micrograph and sample. […] The analysis of the micrographs was done in triplicate.

[2] = test system: human fibroblast (HDF); assay: MTT-ESTA assay of cell metabolic activity, 2D HDF cultures; type: cell-based; details: for % Viability: 24 h exposure, HDF; for concentration showing a cytotoxic response: fibroblast viability
Experimental: (§1) Normal human fibroblasts were isolated and cultured as described previously (Ralston et al., 1997). […] Keratinocytes were cultured in Dulbecco's modified Eagle's medium (DMEM) supplemented with 10% (v/v) foetal calf serum (FCS), 2 mM glutamine, 0.625 μg/ml amphotericin B, 100 IU/ml penicillin and 100 μg/ml streptomycin.

[3] = as above; type: cell-based, human; details: human, normal human dermal fibroblasts (HDF), 2D monolayer culture, 24 h exposure, HDF
Experimental: as §1

CC(C)Cc1ccc(C(C)C(=O)O)cc1 (racemic) [Ibuprofen isomer mixture, 2-(4-isobutylphenyl)propionic acid]
effect on LPS induced NF-κB activation [1]: significantly reducing the response
effect on TNF induced NF-κB activation [1]: significantly reducing the response
% Viability ([2]; Treatment 10^−2): 7.20%
% Viability ([2]; Treatment 10^−3): 101.11%
% Viability ([2]; Treatment 10^−4): 108.56%
% Viability ([2]; Treatment 10^−5): 111.80%
% Viability ([2]; Treatment 10^−6): 109.43%
concentration showing a cytotoxic response [2]: 10^−2 M

CC(C)Cc1ccc(C(C)C(=O)[O-])cc1.[Na+] (centres unmarked) [Ibuprofen Sodium Salt]
effect on LPS induced NF-κB activation [1]: significantly reducing the response
effect on TNF induced NF-κB activation [1]: significantly reducing the response
viability at 24 h ([3]; Treatment 10^−3): 90.3%
viability at 24 h ([3]; Treatment 10^−4): 98.2%
viability at 24 h ([3]; Treatment 10^−5): 100%
viability at 24 h ([3]; Treatment 10^−6): 102%
% Viability ([2]; Treatment 10^−2): 38.25%
concentration showing a cytotoxic response [2]: 10^−2 M

TNF-α
activation of NF-κB ([1]; stimulus alone, LPS 100 ng/mL or TNF-α 1000 U/mL): 80%
